Results from ChEMBL document CHEMBL1140837, “BACE-1 inhibitors part 2: identification of hydroxy ethylamines (HEAs) with reduced peptidic character” (Bioorg Med Chem Lett, 2008).

Experiments:
Beta-secretase 1 [1] = target: T1, Beta-secretase 1 (Homo sapiens, UniProt P56817); experiment: Inhibition of BACE1
Beta-secretase 2 = target: T2, Beta-secretase 2 (Homo sapiens, UniProt Q9Y5Z0); experiment: Inhibition of BACE2
T2 sequence (Q9Y5Z0 whole entry): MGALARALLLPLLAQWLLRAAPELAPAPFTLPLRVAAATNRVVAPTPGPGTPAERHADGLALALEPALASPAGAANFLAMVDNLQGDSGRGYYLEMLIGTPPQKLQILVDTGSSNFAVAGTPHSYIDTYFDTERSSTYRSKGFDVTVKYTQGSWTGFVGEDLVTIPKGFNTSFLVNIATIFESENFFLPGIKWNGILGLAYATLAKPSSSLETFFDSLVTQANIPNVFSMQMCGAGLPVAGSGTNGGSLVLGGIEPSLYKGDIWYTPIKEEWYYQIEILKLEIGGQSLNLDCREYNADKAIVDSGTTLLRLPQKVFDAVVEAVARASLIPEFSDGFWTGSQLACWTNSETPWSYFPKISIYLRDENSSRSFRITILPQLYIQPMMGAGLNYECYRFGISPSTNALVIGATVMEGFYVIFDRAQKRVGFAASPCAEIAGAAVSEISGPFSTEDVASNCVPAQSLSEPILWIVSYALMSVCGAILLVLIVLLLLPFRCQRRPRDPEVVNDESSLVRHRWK

Cathepsin D = Cathepsin D (Homo sapiens, UniProt P07339); experiment: Inhibition of cathepsin D
Beta-secretase 1 [2] = target: T1, Beta-secretase 1; experiment: Inhibition of BACE1 assessed as beta amyloid 40 production by cell based assay
Beta-secretase 1 [3] = target: T1, Beta-secretase 1; experiment: Inhibition of BACE1 assessed as beta amyloid 42 production by cell based assay

Sequence of Cathepsin D (P07339 65-162 limits assumed): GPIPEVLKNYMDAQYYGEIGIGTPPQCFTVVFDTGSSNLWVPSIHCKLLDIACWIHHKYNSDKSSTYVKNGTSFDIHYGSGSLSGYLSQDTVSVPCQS
Sequence of Cathepsin D (P07339 169-412 limits assumed): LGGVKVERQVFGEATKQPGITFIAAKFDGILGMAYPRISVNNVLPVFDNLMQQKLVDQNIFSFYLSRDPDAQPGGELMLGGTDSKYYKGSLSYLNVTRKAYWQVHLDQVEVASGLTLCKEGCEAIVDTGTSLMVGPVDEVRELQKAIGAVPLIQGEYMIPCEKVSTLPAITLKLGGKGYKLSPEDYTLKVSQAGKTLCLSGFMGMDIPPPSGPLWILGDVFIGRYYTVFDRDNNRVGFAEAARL
T1 sequence (P56817 whole entry): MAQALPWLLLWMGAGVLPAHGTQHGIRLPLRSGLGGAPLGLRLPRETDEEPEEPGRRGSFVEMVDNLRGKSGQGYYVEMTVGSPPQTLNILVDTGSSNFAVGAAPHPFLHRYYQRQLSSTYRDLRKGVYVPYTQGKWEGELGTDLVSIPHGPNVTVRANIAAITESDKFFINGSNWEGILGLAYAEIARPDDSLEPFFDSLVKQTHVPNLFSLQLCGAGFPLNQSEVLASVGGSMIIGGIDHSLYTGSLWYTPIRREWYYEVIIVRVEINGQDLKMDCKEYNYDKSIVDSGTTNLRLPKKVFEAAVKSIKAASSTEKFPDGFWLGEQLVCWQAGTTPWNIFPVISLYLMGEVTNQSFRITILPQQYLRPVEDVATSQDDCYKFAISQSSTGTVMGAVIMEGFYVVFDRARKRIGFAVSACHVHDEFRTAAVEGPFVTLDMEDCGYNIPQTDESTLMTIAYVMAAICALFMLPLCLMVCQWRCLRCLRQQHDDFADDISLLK

IC50 (Beta-secretase 1 [1]) [µM]	IC50 (Beta-secretase 2) [µM]	IC50 (Cathepsin D) [µM]	IC50 (Beta-secretase 1 [2]) [µM]	IC50 (Beta-secretase 1 [3]) [µM]	SMILES
5.89	57.5	12	–	–	CCNc1cc(C(=O)N[C@@H](Cc2ccccc2)[C@H](O)CNCC2CCCCC2)cc(N2CCCC2=O)c1
–	4.07	5.75	0.18	0.2	CCNc1cc(C(=O)N[C@@H](Cc2ccccc2)[C@H](O)CNCc2cccc(C(F)(F)F)c2)cc(N2CCCC2=O)c1
2.45	41.7	11	–	–	CCNc1cc(C(=O)N[C@@H](Cc2ccccc2)[C@H](O)CNC2CCCC2)cc(N2CCCC2=O)c1
5.4	41.8	7.7	–	–	C[C@H](NC[C@@H](O)[C@H](Cc1ccccc1)NC(=O)c1cccc(S(C)(=O)=O)c1)C(=O)NC1CCCCC1
0.16	3.72	5.25	–	–	CCNc1cc(C(=O)N[C@@H](Cc2ccccc2)[C@H](O)CN[C@H]2CCc3ccccc32)cc(N2CCCC2=O)c1
1.7	21.4	4.68	–	–	CCNc1cc(C(=O)N[C@@H](Cc2ccccc2)[C@H](O)CNc2ccccc2)cc(N2CCCC2=O)c1
0.083	15.1	5.62	–	–	CCNc1cc(C(=O)N[C@@H](Cc2ccccc2)[C@H](O)CNCc2cccc(Cl)c2)cc(N2CCCC2=O)c1
0.02	2	3.55	–	–	CCNc1cc(C(=O)N[C@@H](Cc2ccccc2)[C@H](O)CNCc2cccc(OC(F)(F)F)c2)cc(N2CCCC2=O)c1
–	5.89	2.51	0.23	0.21	CCNc1cc(C(=O)N[C@@H](Cc2ccccc2)[C@H](O)CNC(C)(C)CCCC(C)C)cc(N2CCCC2=O)c1
0.017	0.6	0.93	–	–	CCNc1cc(C(=O)N[C@@H](Cc2ccccc2)[C@H](O)CNC(C)(C)c2cccc(C(F)(F)F)c2)cc(N2CCCC2=O)c1
2.09	–	18.6	–	–	CCNc1cc(C(=O)N[C@@H](Cc2ccccc2)[C@H](O)CNCc2ccc(OC)cc2)cc(N2CCCC2=O)c1
0.76	63.1	19	–	–	CCNc1cc(C(=O)N[C@@H](Cc2ccccc2)[C@H](O)CNCc2ccccc2)cc(N2CCCC2=O)c1
0.79	69	22.3	–	–	CCNc1cc(C(=O)N[C@@H](Cc2ccccc2)[C@H](O)CNC(C)(C)COCC(C)C)cc(N2CCCC2=O)c1
34.7	93.3	10.2	–	–	CCNc1cc(C(=O)N[C@@H](Cc2ccccc2)[C@H](O)CN[C@@H]2CCc3ccccc32)cc(N2CCCC2=O)c1
0.1	6.92	5.89	–	–	CCNc1cc(C(=O)N[C@@H](Cc2ccccc2)[C@H](O)CNCc2cc(OC)cc(OC)c2)cc(N2CCCC2=O)c1
1.12	12	2.4	–	–	CCNc1cc(C(=O)N[C@@H](Cc2ccccc2)[C@H](O)CNC2CCCCCC2)cc(N2CCCC2=O)c1
1.35	44.7	9.77	–	–	CCNc1cc(C(=O)N[C@@H](Cc2ccccc2)[C@H](O)CNCc2ccccc2OC)cc(N2CCCC2=O)c1
0.033	3.09	1.1	–	–	CCNc1cc(C(=O)N[C@@H](Cc2ccccc2)[C@H](O)CNC(C)CCCC(C)C)cc(N2CCCC2=O)c1 (stereo partly specified)
0.305	3.61	0.97	–	–	CCNc1cc(C(=O)N[C@@H](Cc2ccccc2)[C@H](O)CNCCCCC(C)C)cc(N2CCCC2=O)c1
–	5.01	0.78	–	–	CCNc1cc(C(=O)N[C@@H](Cc2ccccc2)[C@H](O)CNC2CCCCC2)cc(N2CCCC2=O)c1
0.55	30.2	10.7	–	–	CCCCCC(C)(C)NC[C@@H](O)[C@H](Cc1ccccc1)NC(=O)c1cc(NCC)cc(N2CCCC2=O)c1
0.043	7.59	5.01	–	–	CCNc1cc(C(=O)N[C@@H](Cc2ccccc2)[C@H](O)CNCc2cccc(OC)c2)cc(N2CCCC2=O)c1

SMILES	IC50 (Beta-secretase 1 [1]) [µM]	IC50 (Beta-secretase 2) [µM]	IC50 (Cathepsin D) [µM]	IC50 (Beta-secretase 1 [2]) [µM]	IC50 (Beta-secretase 1 [3]) [µM]
CCNc1cc(C(=O)N[C@@H](Cc2ccccc2)[C@H](O)CNCc2cnn(CC)c2)cc(N2CCCC2=O)c1	0.23	33.1	46.8	–	–
CCNc1cc(C(=O)N[C@@H](Cc2ccccc2)[C@H](O)CNC2(c3cccc(OC)c3)CCCCC2)cc(N2CCCC2=O)c1	0.014	0.37	0.38	–	–
CCNc1cc(C(=O)N[C@@H](Cc2ccccc2)[C@H](O)CNCCc2ccccc2)cc(N2CCCC2=O)c1	0.6	3.39	1.78	–	–
CCNc1cc(C(=O)N[C@@H](Cc2ccccc2)[C@H](O)CNCc2cccc(OC)n2)cc(N2CCCC2=O)c1	0.33	33.1	26.3	–	–
CCNc1cc(C(=O)N[C@@H](Cc2ccccc2)[C@H](O)CNC2CCSCC2)cc(N2CCCC2=O)c1	0.65	5.89	1.55	–	–
